According to patent US7169785B2, “Methods and compositions of novel triazine compounds” (Reddy US Therapeutics, Inc., priority 2001, dated 2007):

The compounds below were run on IL-6 (assay: TNF-α-induced IL-6 production determined by IL-6 ELISA in HAEC). Conditions: Compds tested @ 10 uM, HAEC.
Type: cell-based, human
Description: Human aortic endothelial cells (HAEC, Clonetics) were cultured according to manufacturer in growth medium (Clonetics): basal medium containing human epidermal growth factor, hydrocortisone, vascular endothelial growth factor, heparin binding growth factor-B, long R3-insulin-like growth factor-1, ascorbic acid, gentamicin/amphotericin and 5% FBS. These cell were allowed to reach at least 90% confluency before subjected to experimental treatments. Glycated human serum albumin (G-HSA) was from US Biologicals. Tumor necrosis factor α was from R&D Systems.
[…] All treatments, compound-added and controls were carried out in serum free media containing 0.2% albumin. Media from all conditions were collected and used for IL-6 ELISA.
IL-6 ELISA was carried out using human IL-6 DuoSet ELISA development kit as described by manufacturer (R&D Systems). Mouse anti-human Il-6 was used as the capture antibody (2 ug/ml) and biotinylated goat anti-human IL-6 (200 ng/ml) was used as the detection antibody. Culture media were incubated with capture antibody (in 96 well) for 2 h at room temperature. Wells were washed three times with wash buffer (0.05% tween-20 in phosphate buffered saline (PBS) pH 7.4) followed by incubation with detection antibody for 2 h at room temperature. Following three washes wells were incubated with Streptavidin-HRP for 20 min. Color development was read at 450 nm in a Microplate reader.

Row | Structure (SMILES) | % IL6 production compare to TNF stimulation to IL6 (100%) [%]
1 | CN1CCC(N(C)c2nc(Nc3ccc4ccccc4c3)nc(NC3CCCCCC3)n2)CC1 [Compound 172, N-Cycloheptyl-N′-methyl-N′-(1-methyl-piperidin-4-yl)-N″-naphthalen-2-yl-[1,3,5]triazine-2,4,6-triamine] | 18
2 | COc1ccc(Nc2nc(N3CCOCC3)nc(N3CCN(Cc4ccccc4)CC3)n2)cc1 [Compound 173, [4-(4-Benzyl-piperazin-1-yl)-6-morpholin-4-yl-[1,3,5]triazin-2-yl]-(4-methoxy-phenyl)-amine] | 47
3 | c1ccc2cc(Nc3nc(NC4CCCCCC4)nc(N4CCOCC4)n3)ccc2c1 [Compound 174, N-Cycloheptyl-6-morpholin-4-yl-N′-naphthalen-2-yl-[1,3,5]triazine-2,4-diamine] | 34
4 | COc1ccc(Nc2nc(NC3CCCCCC3)nc(N3CCOCC3)n2)cc1F [Compound 175, N-Cycloheptyl-N′-(3-fluoro-4-methoxy-phenyl)-6-morpholin-4-yl-[1,3,5]triazine-2,4-diamine] | 18
5 | c1ccc(Nc2nc(NC3CCCCCC3)nc(N3CCOCC3)n2)cc1 [Compound 176, N-Cycloheptyl-6-morpholin-4-yl-N′-phenyl-[1,3,5]triazine-2,4-diamine] | 33
6 | COc1ccc(Nc2nc(NC3CCCCCC3)nc(N(C)Cc3ccccc3)n2)cc1 [Compound 178, N-Benzyl-N′-cycloheptyl-N″-(4-methoxy-phenyl)-N-methyl-[1,3,5]triazine-2,4,6-triamine] | 19

Same assay, conditions: HAEC; class of % of control IL6 production

Row | Structure (SMILES) | Inhibition of TNF-induced IL6 production
7 | COc1ccc(Nc2nc(NCCCCCO)nc(N(C)C3CCN(C)CC3)n2)cc1Cl [Compound 108, 5-{4-(3-Chloro-4-methoxy-phenylamino)-6-[methyl-(1-methyl-piperidin-4-yl)-amino]-[1,3,5]triazin-2-ylamino}-pentan-1-ol] | +++ (between about 25 and about 50% of control IL6 production)
8 | CCCCN(CCC)c1nc(Nc2ccc(OC)c(Cl)c2)nc(N(C)C2CCN(C)CC2)n1 [Compound 111, N-Butyl-N′-(3-chloro-4-methoxy-phenyl)-N″-methyl-N″-(1-methyl-piperidin-4-yl)-N-propyl-[1,3,5]triazine-2,4,6-triamine] | + (between about 75 and 100% of control IL6 production)
9 | CCCCN(CCC)c1nc(Nc2ccc(OC)c(Cl)c2)nc(N(C)C2CCNCC2)n1 [Compound 112, N^2-Butyl-N^4-(3-chloro-4-methoxy-phenyl)-N^6-methyl-N^6-piperidin-4-yl-N^2-propyl-1,3,5-triazine-2,4,6-triamine] | + (between about 75 and 100% of control IL6 production)

Same assay, conditions: Homo sapiens, 24 h, read-out: % IL6 production compare to TNF stimulation of IL6 (100%), @ 5 uM; HAEC, IL6

Row | Structure (SMILES) | activity at 5 µM [%]
10 | CCCCN(CCC)c1nc(Nc2ccc(OC)c(Cl)c2)nc(N(C)C2CCN(C)CC2)n1 [Compound 111, N-Butyl-N′-(3-chloro-4-methoxy-phenyl)-N″-methyl-N″-(1-methyl-piperidin-4-yl)-N-propyl-[1,3,5]triazine-2,4,6-triamine] | 46
11 | CCCCN(CCC)c1nc(Nc2ccc(OC)c(Cl)c2)nc(N(C)C2CCNCC2)n1 [Compound 112, N^2-Butyl-N^4-(3-chloro-4-methoxy-phenyl)-N^6-methyl-N^6-piperidin-4-yl-N^2-propyl-1,3,5-triazine-2,4,6-triamine] | 90

Same assay, conditions: Homo sapiens, 24 h, read-out: % IL6 production compare to TNF stimulation of IL6 (100%), Compds tested @ 10 uM; HAEC, IL6

Row | Structure (SMILES) | activity at 10 µM [%]
12 | COc1ccc(Nc2nc(NCCCCCO)nc(N(C)C3CCN(C)CC3)n2)cc1Cl [Compound 108, 5-{4-(3-Chloro-4-methoxy-phenylamino)-6-[methyl-(1-methyl-piperidin-4-yl)-amino]-[1,3,5]triazin-2-ylamino}-pentan-1-ol] | 25
13 | CCCCN(CCC)c1nc(Nc2ccc(OC)c(Cl)c2)nc(N(C)C2CCN(C)CC2)n1 [Compound 111, N-Butyl-N′-(3-chloro-4-methoxy-phenyl)-N″-methyl-N″-(1-methyl-piperidin-4-yl)-N-propyl-[1,3,5]triazine-2,4,6-triamine] | > 90

Same assay, conditions: Homo sapiens, 24 h; Compds tested @ 10 uM; HAEC, IL6; read-out: % IL6 production compare to TNF stimulation of IL6 (100%)

Row | Structure (SMILES) | activity at 10 µM [%]
14 | CCN1CCCC1CNc1nc(Nc2ccc(N3CCN(C)CC3)cc2)nc(NC2CCCCCC2)n1 (stereo not drawn) [Compound 28, N^2-cycloheptyl-N^4-[(1-ethyl-2-pyrrolidinyl)methyl]-N^6-[4-(4-methyl-1-piperazinyl)phenyl]-1,3,5-triazine-2,4,6-triamine] | 23
15 | CCNc1nc(NCC2CCCN2CC)nc(Nc2ccc(OC)c(F)c2)n1 (stereo not drawn) [Compound 51, N^2-ethyl-N^4-[(1-ethyl-2-pyrrolidinyl)methyl]-N^6-(3-fluoro-4-methoxyphenyl)-1,3,5-triazine-2,4,6-triamine] | 1
16 | CCN1CCCC1CNc1nc(Nc2ccc(OC)c(F)c2)nc(NC2CCCCC2)n1 (stereo not drawn) [Compound 55, N^2-cyclohexyl-N^4-[(1-ethyl-2-pyrrolidinyl)methyl]-N^6-(3-fluoro-4-methoxyphenyl)-1,3,5-triazine-2,4,6-triamine] | 1
17 | CCN1CCCC1CNc1nc(Nc2ccc(OC)c(F)c2)nc(NC2CCCC2)n1 (stereo not drawn) [Compound 56, N^2-cyclopentyl-N^4-[(1-ethyl-2-pyrrolidinyl)methyl]-N^6-(3-fluoro-4-methoxyphenyl)-1,3,5-triazine-2,4,6-triamine] | 1
18 | CCN1CCCC1CNc1nc(Nc2ccc(OC)c(F)c2)nc(NC2CCC(C)CC2)n1 (stereo not drawn) [Compound 60, N^2-[(1-ethyl-2-pyrrolidinyl)methyl]-N^4-(3-fluoro-4-methoxyphenyl)-N^6-(4-methylcyclohexyl)-1,3,5-triazine-2,4,6-triamine] | 1
19 | CCN1CCCC1CNc1nc(Nc2ccc(OC)c(F)c2)nc(N2CCN(C(C)=O)CC2)n1 (stereo not drawn) [Compound 63, 6-(4-acetyl-1-piperazinyl)-N^2-[(1-ethyl-2-pyrrolidinyl)methyl]-N^4-(3-fluoro-4-methoxyphenyl)-1,3,5-triazine-2,4-diamine] | 26
20 | CCOC(=O)N1CCN(c2nc(NCC3CCCN3CC)nc(Nc3ccc(OC)c(F)c3)n2)CC1 (stereo not drawn) [Compound 64, Ethyl 4-{4-{[(1-ethyl-2-pyrrolidinyl)methyl]amino}-N^6-[(3-fluoro-4-methoxyphenyl)amino]-1,3,5-triazin-2-yl}-1-piperazinecarboxylate] | 23
21 | COc1ccc(Nc2nc(NC3CCCCCC3)nc(NC(C)(C)C)n2)cc1F [Compound 77, N^2-(tert-butyl)-N^4-cycloheptyl-N^6-(3-fluoro-4-methoxyphenyl)-1,3,5-triazine-2,4,6-triamine] | 21
22 | COc1ccc(Nc2nc(NCc3ccccc3)nc(NC3CCCCCC3)n2)cc1F [Compound 78, N^2-benzyl-N^4-cycloheptyl-N^6-(3-fluoro-4-methoxyphenyl)-1,3,5-triazine-2,4,6-triamine] | 47
23 | COc1ccc(Nc2nc(NC3CCCCCC3)nc(N3CCCCCC3)n2)cc1F [Compound 83, N^2-cycloheptyl-N^4-(3-fluoro-4-methoxyphenyl)-6-hexahydro-1H-azepin-1-yl-1,3,5-triazine-2,4-diamine] | 18
24 | COc1ccc(Nc2nc(NC3CCCCCC3)nc(N3CCCC4CCCCC43)n2)cc1F (stereo not drawn) [Compound 84, N^2-cycloheptyl-N^4-(3-fluoro-4-methoxyphenyl)-6-octahydro-1(2H)-quinolinyl-1,3,5-triazine-2,4-diamine] | 33
25 | COC[C@@H]1CCCN1c1nc(Nc2ccc(OC)c(F)c2)nc(NC2CCCCCC2)n1 [Compound 86, N^2-cycloheptyl-N^4-(3-fluoro-4-methoxyphenyl)-6-[(2S)-2-(methoxymethyl)-1-pyrrolidinyl]-1,3,5-triazine-2,4-diamine] | 19
26 | COc1ccc(Nc2nc(NC3CCCCCC3)nc(N3CCN(C(C)=O)CC3)n2)cc1F [Compound 88, 6-(4-acetyl-1-piperazinyl)-N^2-cycloheptyl-N^4-(3-fluoro-4-methoxyphenyl)-1,3,5-triazine-2,4-diamine] | 19
27 | COc1ccc(Nc2nc(NCc3ccco3)nc(NC3CCCCCC3)n2)cc1F [Compound 91, N^2-cycloheptyl-N^4-(3-fluoro-4-methoxyphenyl)-N^6-(2-furanylmethyl)-1,3,5-triazine-2,4,6-triamine] | 28
28 | COc1ccc(Nc2nc(NCCN3CCCCC3)nc(NC3CCCCCC3)n2)cc1F [Compound 96, N^2-cycloheptyl-N^4-(3-fluoro-4-methoxyphenyl)-N^6-[2-(1-piperidinyl)ethyl]-1,3,5-triazine-2,4,6-triamine] | 6
29 | CCN1CCC[C@H]1CNc1nc(NCC2CCCCC2)nc(Nc2ccc(OC)c(F)c2)n1 [Compound 141, N^2-cyclohexylmethyl-N^4-((S)-1-ethyl-pyrrolidin-2-ylmethyl)-N^6-(3-fluoro-4-methoxyphenyl)-1,3,5-triazine-2,4,6-triamine] | 23.4
30 | CCN1CCC[C@@H]1CNc1nc(NCC2CCCCC2)nc(Nc2ccc(OC)c(F)c2)n1 [Compound 142, N^2-cyclohexylmethyl-N^4-((R)-1-ethyl-pyrrolidin-2-ylmethyl)-N^6-(3-fluoro-4-methoxyphenyl)-1,3,5-triazine-2,4,6-triamine] | 21.6
31 | CCN1CCC[C@H]1CNc1nc(NC2CCCCCC2)nc(N(CC#N)c2ccccc2)n1 [Compound 143, ({4-cycloheptylamino-6-[((S)-1-ethyl-pyrrolidin-2-ylmethyl)-amino]-1,3,5-triazin-2-yl}-phenyl-amino)-acetonitrile] | 18.9
32 | COc1ccc(Nc2nc(NC3CC3)nc(NC3CC3)n2)cc1F [Compound 157, N,N′-dicyclopropyl-N″-(3-fluoro-4-methoxy-phenyl)-1,3,5-triazine-2,4,6-triamine] | 60.5

Same assay, conditions: Homo sapiens; HAEC, IL6; unit inferred; read-out: IC50 (TNF stimulation of IL6)

Row | Structure (SMILES) | IC50 [µM]
33 | CCN1CCCC1CNc1nc(Nc2ccc(OC)c(Cl)c2)nc(NC2CCCCCC2)n1 (stereo not drawn) [Compound 48, N^2-(3-chloro-4-methoxyphenyl)-N^4-cycloheptyl-N^6-[(1-ethyl-2-pyrrolidinyl)methyl]-1,3,5-triazine-2,4,6-triamine] | 4.3
